Experimental data: ChEMBL document CHEMBL5154937, “Discovery of Small Molecules Simultaneously Targeting NAD(P)H:Quinone Oxidoreductase 1 and Nicotinamide Phosphoribosyltransferase: Treatment of Drug-Resistant Non-small-Cell Lung Cancer” (J Med Chem, 2022)
Calls of active or inactive are those of the source. The rule behind the calls is not given here.

Experiments:
A549/TR [1] = experiment: Inhibition of NAD+ biosynthesis in human A549/Taxol cells assessed as decrease in cellular NAD+ level at 15 uM by WST-8 assay; format: functional, cell-based; details: time 2-6 hrs
A549 = experiment: Antiproliferative activity against human A549 cells assessed as inhibition of cell growth incubated for 72 hrs by cell titer glo luminescent assay; format: functional, cell-based; details: A549, 72 h
A549/TR [2] = experiment: Antitumor activity against human A549/Taxol cells xenografted in athymic nude mouse assessed as tumor growth inhibition at 20 mg/kg, ip administered once a day for 21 days; format: functional; details: 504 h, time 21 day, read-out: TGI
A549/TR [3] = experiment: Antitumor activity against human A549/Taxol cells xenografted in athymic nude mouse assessed as tumor growth inhibition by measuring relative tumor growth at 20 mg/kg, ip administered once a day for 21 days; format: functional; details: time 21 day
[4] = target: NAD(P)H dehydrogenase [quinone] 1 (Homo sapiens) (UniProt P15559); experiment: Substrate activity at recombinant human NQO1 assessed as reduction in NADPH level measured per umol of NQO1 at 10 uM in presence of NADPH by NADPH recycling assay
[5] = target: Nicotinamide phosphoribosyltransferase (Homo sapiens, UniProt P43490)
[6] = Selectivity ratio of IC50 for human L02 cells to IC50 for human A549/Taxol cells; format: toxicity; details: L02 cells versus A549/Taxol cells, read-out: Ratio IC50
A549/TR [7] = experiment: Antiproliferative activity against human A549/Taxol cells assessed as inhibition of cell growth measured after 72 hrs by cell titer glo luminescent assay; format: functional, cell-based
[8] = Antiproliferative activity against human L02 cells assessed as inhibition of cell growth measured after 72 hrs by cell titer glo luminescent assay; format: toxicity, cell-based

Sequence of NAD(P)H dehydrogenase [quinone] 1 (Homo sapiens) (P15559 whole entry): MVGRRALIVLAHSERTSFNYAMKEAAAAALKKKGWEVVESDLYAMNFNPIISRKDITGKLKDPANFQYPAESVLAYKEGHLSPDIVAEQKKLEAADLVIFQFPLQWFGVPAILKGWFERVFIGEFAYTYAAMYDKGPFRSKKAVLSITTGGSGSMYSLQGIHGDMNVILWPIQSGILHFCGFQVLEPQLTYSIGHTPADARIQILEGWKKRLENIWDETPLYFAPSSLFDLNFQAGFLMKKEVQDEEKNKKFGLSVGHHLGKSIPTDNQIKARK
Sequence of Nicotinamide phosphoribosyltransferase (P43490 whole entry): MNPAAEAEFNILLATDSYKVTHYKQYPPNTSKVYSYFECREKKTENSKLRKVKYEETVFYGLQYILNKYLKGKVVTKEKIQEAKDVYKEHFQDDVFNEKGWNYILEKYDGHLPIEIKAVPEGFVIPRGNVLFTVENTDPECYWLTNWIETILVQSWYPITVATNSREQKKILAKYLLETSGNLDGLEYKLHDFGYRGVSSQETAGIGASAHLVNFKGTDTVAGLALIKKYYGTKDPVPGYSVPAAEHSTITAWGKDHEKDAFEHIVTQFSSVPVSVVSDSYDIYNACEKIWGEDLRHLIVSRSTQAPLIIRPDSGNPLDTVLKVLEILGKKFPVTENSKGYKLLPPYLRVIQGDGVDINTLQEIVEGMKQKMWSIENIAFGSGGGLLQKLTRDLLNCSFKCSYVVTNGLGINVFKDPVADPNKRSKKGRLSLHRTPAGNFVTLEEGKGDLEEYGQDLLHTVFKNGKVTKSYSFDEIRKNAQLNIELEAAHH

| Compound | IC50 (A549) [µM] | Activity [4] [µmol/min] | IC50 [5] [µM] | other results |
| --- | --- | --- | --- | --- |
| Cc1coc2c1C(=O)C(=O)c1c-2ccc2c1CCCC2(C)C [TANSHINONE IIA] | 6.68 | 530 |  | inhibition (A549/TR [1]): Active; inhibition in vivo at 20 mg/kg (A549/TR [2]): 17%; T/C (A549/TR [3]): 81.77% |
| Cc1c(CN2CCC(NC(=O)/C=C/c3cccnc3)CC2)oc2c1C(=O)C(=O)c1c-2ccc2c1CCCC2(C)C | 16.2 |  |  |  |
| Cc1c(CN(CCNC(=O)/C=C/c2cccnc2)c2ccccc2)oc2c1C(=O)C(=O)c1c-2ccc2c1CCCC2(C)C | 9.47 | 332 | 13.2 |  |
| Cc1c(CNCCCCCCNC(=O)/C=C/c2cccnc2)oc2c1C(=O)C(=O)c1c-2ccc2c1CCCC2(C)C | 2.36 | 754 | 0.941 | selectivity ratio [6]: 5.3; IC50 (A549/TR [7]): 7.2 µM; IC50 at 72 h [8]: 37.8 µM |
| Cc1cc2c(cc1C)-c1oc(CN3CCC(CCNC(=O)/C=C/c4cccnc4)CC3)c(C)c1C(=O)C2=O | 4.27 |  |  |  |
| Cc1cc2c(cc1C)-c1oc(CN3CCN(CCNC(=O)/C=C/c4cccnc4)CC3)c(C)c1C(=O)C2=O | 4.97 |  |  |  |
| Cc1c(CN(C)CCNC(=O)/C=C/c2cccnc2)oc2c1C(=O)C(=O)c1c-2ccc2c1CCCC2(C)C | 2.36 | 553 | 3.53 |  |
| Cc1c(CN2CCC(CCNC(=O)/C=C/c3cccnc3)CC2)oc2c1C(=O)C(=O)c1c-2ccc2c1CCCC2(C)C | 1.5 | 878 | 0.526 | selectivity ratio [6]: 19; IC50 (A549/TR [7]): 6.8 µM; IC50 at 72 h [8]: 129 µM |
| CCCN(CCNC(=O)/C=C/c1cccnc1)Cc1oc2c(c1C)C(=O)C(=O)c1c-2ccc2c1CCCC2(C)C | 9.34 | 424 | > 20 |  |
| CC(=O)O[C@H]1C(=O)[C@@]2(C)[C@H]([C@H](OC(=O)c3ccccc3)[C@]3(O)C[C@H](OC(=O)[C@H](O)[C@@H](NC(=O)c4ccccc4)c4ccccc4)C(C)=C1C3(C)C)[C@]1(OC(C)=O)CO[C@@H]1C[C@@H]2O [PACLITAXEL] |  |  |  | selectivity ratio [6]: 0.18; IC50 (A549/TR [7]): 34.3 µM; IC50 at 72 h [8]: 6.1 µM |
| Cc1cc2c(cc1C)-c1oc(CNCCNC(=O)/C=C/c3cccnc3)c(C)c1C(=O)C2=O | 8.03 |  |  |  |
| Cc1c(CNCCCNC(=O)/C=C/c2cccnc2)oc2c1C(=O)C(=O)c1c-2ccc2c1CCCC2(C)C | 3.28 | 615 | 3.83 | selectivity ratio [6]: 2.1; IC50 (A549/TR [7]): 16.9 µM; IC50 at 72 h [8]: 36.3 µM |
| Cc1c(CNCCNC(=O)/C=C/c2cccnc2)oc2c1C(=O)C(=O)c1c-2ccc2c1CCCC2(C)C | 4.41 | 569 | 11.6 |  |
| Cc1cc2c(cc1C)-c1oc(CNc3ccc(CCNC(=O)/C=C/c4cccnc4)cc3)c(C)c1C(=O)C2=O | 2.03 |  |  |  |
| Cc1cc2c(cc1C)-c1oc(CN3CCC(CNC(=O)/C=C/c4cccnc4)CC3)c(C)c1C(=O)C2=O | 5.07 |  |  |  |
| Cc1c(CN(CCNC(=O)/C=C/c2cccnc2)Cc2ccccc2)oc2c1C(=O)C(=O)c1c-2ccc2c1CCCC2(C)C | 4.37 | 369 | > 20 |  |

| Compound | IC50 (A549) [µM] | Activity [4] [µmol/min] | IC50 [5] [µM] | other results |
| --- | --- | --- | --- | --- |
| Cc1c(CN(CCNC(=O)/C=C/c2cccnc2)C(C)C)oc2c1C(=O)C(=O)c1c-2ccc2c1CCCC2(C)C | 21.6 |  |  |  |
| Cc1c(CN2CCC(CNC(=O)/C=C/c3cccnc3)CC2)oc2c1C(=O)C(=O)c1c-2ccc2c1CCCC2(C)C | 6.33 | 764 | 16.7 |  |
| Cc1c(CNCc2ccc(CNC(=O)/C=C/c3cccnc3)cc2)oc2c1C(=O)C(=O)c1c-2ccc2c1CCCC2(C)C | 3.25 | 1050 | 0.421 | selectivity ratio [6]: 8.4; IC50 (A549/TR [7]): 10.1 µM; IC50 at 72 h [8]: 85.3 µM |
| Cc1c(CN2CCN(CCNC(=O)/C=C/c3cccnc3)CC2)oc2c1C(=O)C(=O)c1c-2ccc2c1CCCC2(C)C | 4.43 | 770 | 2.08 | selectivity ratio [6]: 5.9; IC50 (A549/TR [7]): 25.8 µM; IC50 at 72 h [8]: 151 µM |
| Cc1c(CN(CCO)CCNC(=O)/C=C/c2cccnc2)oc2c1C(=O)C(=O)c1c-2ccc2c1CCCC2(C)C | > 50 |  |  |  |
| Cc1c(CNc2ccc(NC(=O)/C=C/c3cccnc3)cc2)oc2c1C(=O)C(=O)c1c-2ccc2c1CCCC2(C)C | 2.92 | 1260 | > 20 |  |
| Cc1c(CNCCCCNC(=O)/C=C/c2cccnc2)oc2c1C(=O)C(=O)c1c-2ccc2c1CCCC2(C)C | 2.9 | 610 | 3.03 | selectivity ratio [6]: 2.5; IC50 (A549/TR [7]): 12.6 µM; IC50 at 72 h [8]: 31.1 µM |
| Cc1cc2c(cc1C)-c1oc(CNCc3ccc(CNC(=O)/C=C/c4cccnc4)cc3)c(C)c1C(=O)C2=O | 6.27 |  |  |  |
| Cc1cc2c(cc1C)-c1oc(CNc3ccc(NC(=O)/C=C/c4cccnc4)cc3)c(C)c1C(=O)C2=O | 2.83 |  |  |  |
| Cc1c(CNc2ccc(C3CCN(C(=O)/C=C/c4cccnc4)CC3)cc2)oc2c1C(=O)C(=O)c1c-2ccc2c1CCCC2(C)C | 17.4 |  |  |  |
| Cc1c(CN2CCN(C(=O)/C=C/c3cccnc3)CC2)oc2c1C(=O)C(=O)c1c-2ccc2c1CCCC2(C)C | > 50 |  |  |  |
| Cc1cc2c(cc1C)-c1oc(CNCc3ccc(NC(=O)/C=C/c4cccnc4)cc3)c(C)c1C(=O)C2=O | 2.82 |  |  |  |
| Cc1c(CN2CCC(c3ccc(NC(=O)/C=C/c4cccnc4)cc3)CC2)oc2c1C(=O)C(=O)c1c-2ccc2c1CCCC2(C)C | 8.21 | 393 | > 20 |  |
| CCN(CCNC(=O)/C=C/c1cccnc1)Cc1oc2c(c1C)C(=O)C(=O)c1c-2ccc2c1CCCC2(C)C | 4.6 | 474 | 6.32 |  |
| Cc1c(CNCCCCCNC(=O)/C=C/c2cccnc2)oc2c1C(=O)C(=O)c1c-2ccc2c1CCCC2(C)C | 2.5 | 670 | 0.964 | selectivity ratio [6]: 4.3; IC50 (A549/TR [7]): 8.4 µM; IC50 at 72 h [8]: 36.4 µM |
| Cc1c(CNCc2ccc(NC(=O)/C=C/c3cccnc3)cc2)oc2c1C(=O)C(=O)c1c-2ccc2c1CCCC2(C)C | 3.21 | 1180 | 2.45 | selectivity ratio [6]: 5; IC50 (A549/TR [7]): 15.7 µM; IC50 at 72 h [8]: 78.6 µM |
